{"source": "patent US8557836B2", "about": "(priority 2008, dated 2013)", "origin": "cited, not measured here", "tested_on": "M2 ion channel with mutations at M2 residues 27, 30, 31, and 34", "conditions": "mutations at M2 residues 27, 30, 31, and 34 in the M2 transmembrane domain; cited from earlier work"}
{"smiles": "C1CCC2(CC1)CCN(C1=NCCN1)CC2", "note": "[BL-1743, 3-(4,5-dihydro-1H-imidazol-2-yl)-3-azaspiro[5,5]undecane hydroiodide, reference compound]", "values": [{"measurement": "resistance to BL-1743 induced by amantadine resistance mutations", "result": "complete"}]}
